From patent US20090016990A1, “Antimicrobial Compositions” (priority 2007, published 2009)

Columns and labels:
[1] = test system: Pseudomonas aeruginosa ATCC 27853; assay: MBEC assay, biofilm inhibition (prevention of biofilm formation), MBEC bioFILM PA panel; type: cell-based; parameters: MBEC-Biofilm Inhibition, Without compound 9 / MBEC-Biofilm Inhibition, Without compound 6 / MBEC-Biofilm Inhibition, Without compound 2 / MBEC-Biofilm Inhibition, Without compound 7 / MBEC-Biofilm Inhibition, With 0.01% compound 7 in 5% EtOH/PBS / MBEC-Biofilm Inhibition, without salt of compound 2 / MBEC-Biofilm Inhibition, with 0.1% salt of compound 2 / MBEC-Biofilm Inhibition, without salt of compound 6: unit not given here; details: for MBEC-Biofilm Inhibition, without salt of compound 2 / MBEC-Biofilm Inhibition, with 0.1% salt of compound 2: Table 9; for MBEC-Biofilm Inhibition, without salt of compound 2 / MBEC-Biofilm Inhibition, without salt of compound 6: antibiotic or antibiotic combination alone; for MBEC-Biofilm Inhibition, without salt of compound 2 / MBEC-Biofilm Inhibition, with 0.1% salt of compound 2 / MBEC-Biofilm Inhibition, without salt of compound 6 / MBEC-Biofilm Inhibition, with 0.1% salt of compound 6: value per component; for MBEC-Biofilm Inhibition, without salt of compound 2: separated by /; for MBEC-Biofilm Inhibition, with 0.1% salt of compound 2: antibiotic or combination plus 0.1% salt of compound 2; for MBEC-Biofilm Inhibition, without salt of compound 6 / MBEC-Biofilm Inhibition, with 0.1% salt of compound 6: Table 10; for MBEC-Biofilm Inhibition, with 0.1% salt of compound 6: antibiotic or combination plus 0.1% salt of compound 6; for MBEC-Biofilm Inhibition, Without compound 1 / MBEC-Biofilm Inhibition, Without compound 2 / MBEC-Biofilm Inhibition, Without compound 3 / MBEC-Biofilm Inhibition, Without compound 6 / MBEC-Biofilm Inhibition, Without compound 7 / MBEC-Biofilm Inhibition, Without compound 9: antibiotic alone; for MBEC: antibiotic or combination alone, concentrations in order of the combination; for MBEC, μg/mL +Compound 1: antibiotic plus Compound 1; for MBEC, μg/mL +Compound 2: antibiotic plus Compound 2; for MBEC, μg/mL +Compound 7: antibiotic plus Compound 7
[2] = test system: Pseudomonas aeruginosa ATCC 27853; assay: MBEC assay, biofilm elimination, MBEC bioFILM PA panel; type: cell-based; parameters: MBEC-Biofilm Elimination, Without compound 2 / MBEC-Biofilm Elimination, With 0.01% compound 2 in 5% EtOH/PBS / MBEC-Biofilm Elimination, Without compound 7 / MBEC-Biofilm Elimination, With 0.01% compound 7 in 5% EtOH/PBS / MBEC-Biofilm Elimination, Without compound 1 / MBEC-Biofilm Elimination, With 0.01% compound 1 in 5% EtOH/PBS / MBEC-Biofilm Elimination, without salt of compound 2 / MBEC-Biofilm Elimination, with 0.1% salt of compound 2: unit not given here; details: for MBEC-Biofilm Elimination, without salt of compound 2 / MBEC-Biofilm Elimination, with 0.1% salt of compound 2: Table 9; for MBEC-Biofilm Elimination, without salt of compound 2 / MBEC-Biofilm Elimination, without salt of compound 6: antibiotic or antibiotic combination alone; for MBEC-Biofilm Elimination, without salt of compound 2 / MBEC-Biofilm Elimination, with 0.1% salt of compound 2 / MBEC-Biofilm Elimination, without salt of compound 6 / MBEC-Biofilm Elimination, with 0.1% salt of compound 6: value per component; for MBEC-Biofilm Elimination, with 0.1% salt of compound 2: antibiotic or combination plus 0.1% salt of compound 2; for MBEC-Biofilm Elimination, without salt of compound 6 / MBEC-Biofilm Elimination, with 0.1% salt of compound 6: Table 10; for MBEC-Biofilm Elimination, with 0.1% salt of compound 6: antibiotic or combination plus 0.1% salt of compound 6; for MBEC-Biofilm Elimination, Without compound 1 / MBEC-Biofilm Elimination, Without compound 2 / MBEC-Biofilm Elimination, Without compound 3 / MBEC-Biofilm Elimination, Without compound 6 / MBEC-Biofilm Elimination, Without compound 7 / MBEC-Biofilm Elimination, Without compound 9: antibiotic alone
[3] = reduction of antibiotic or combination required to prevent biofilm formation
[4] = with 0.01% compound 1 in 5% EtOH/PBS
[5] = with 0.01% compound 2 in 5% EtOH/PBS

| SMILES | MBEC-Biofilm Inhibition, without salt of compound 2 [1] | MBEC-Biofilm Inhibition, with 0.1% salt of compound 2 [1] | MBEC-Biofilm Inhibition, without salt of compound 6 [1] | MBEC-Biofilm Inhibition, with 0.1% salt of compound 6 [1] | MBEC-Biofilm Inhibition, Without compound 1 [1] | MBEC-Biofilm Inhibition, Without compound 2 [1] | MBEC-Biofilm Inhibition, Without compound 3 [1] | MBEC-Biofilm Inhibition, Without compound 6 [1] | MBEC-Biofilm Inhibition, Without compound 7 [1] | MBEC-Biofilm Inhibition, Without compound 9 [1] | MBEC-Biofilm Inhibition, With 0.01% compound 1 in 5% EtOH/PBS [1, 4] | MBEC-Biofilm Inhibition, With 0.01% compound 2 in 5% EtOH/PBS [1, 5] | MBEC-Biofilm Inhibition, With 0.01% compound 7 in 5% EtOH/PBS [1] | MBEC-Biofilm Inhibition, With 0.05% compound 3 in 5% EtOH/PBS [1] | MBEC-Biofilm Inhibition, With 0.05% compound 6 in 5% EtOH/PBS [1] | MBEC-Biofilm Inhibition, With 0.1% w/v compound 9 in PBS [1] | MBEC-Biofilm Elimination, without salt of compound 2 [2] | MBEC-Biofilm Elimination, with 0.1% salt of compound 2 [2] | MBEC-Biofilm Elimination, without salt of compound 6 [2] | MBEC-Biofilm Elimination, with 0.1% salt of compound 6 [2] | also measured |
| --- | --- | --- | --- | --- | --- | --- | --- | --- | --- | --- | --- | --- | --- | --- | --- | --- | --- | --- | --- | --- | --- |
| NCC[C@H](O)C(=O)N[C@@H]1C[C@H](N)[C@@H](O[C@H]2O[C@H](CN)[C@@H](O)[C@H](O)[C@H]2O)[C@H](O)[C@H]1O[C@H]1O[C@H](CO)[C@@H](O)[C@H](N)[C@H]1O [AK, amikacin] | >8 | >8 | >8 | >8 | >8 | >8 | >8 | >8 | >8 | >8 | >8 | 2-8 | >8 | >8 | >8 | >8 | >8 | 8 | >8 | 8 | MBEC [1]: >8 µg/mL; MBEC, μg/mL +Compound 1 [1]: >8 µg/mL; MBEC, μg/mL +Compound 2 [1]: >8 µg/mL; MBEC, μg/mL +Compound 7 [1]: 2 to 8 µg/mL; (% reduction) +Compound 7 [1, 3]: > 50%; value in parentheses after MBEC-Biofilm Inhibition with 0.01% compound 2 (% reduction as in Table 2) [1, 5]: ≥ 50; MBEC-Biofilm Elimination, Without compound 1 [2]: >8; MBEC-Biofilm Elimination, Without compound 2 [2]: >8; MBEC-Biofilm Elimination, Without compound 3 [2]: >8; MBEC-Biofilm Elimination, Without compound 6 [2]: >8; MBEC-Biofilm Elimination, Without compound 7 [2]: >8; MBEC-Biofilm Elimination, Without compound 9 [2]: >8; MBEC-Biofilm Elimination, With 0.01% compound 1 in 5% EtOH/PBS [2]: >8; MBEC-Biofilm Elimination, With 0.01% compound 2 in 5% EtOH/PBS [2]: 8; MBEC-Biofilm Elimination, With 0.01% compound 7 in 5% EtOH/PBS [2]: 8; MBEC-Biofilm Elimination, With 0.05% compound 3 in 5% EtOH/PBS [2]: >8; MBEC-Biofilm Elimination, With 0.05% compound 6 in 5% EtOH/PBS [2]: >8; MBEC-Biofilm Elimination, With 0.1% w/v compound 9 in PBS [2]: >8 |
| C[C@@H](O)[C@H]1C(=O)N2C(C(=O)O)=C(S[C@@H]3CN[C@H](C(=O)N(C)C)C3)[C@H](C)[C@H]12 [MER, meropenem] | >2 | >2 | >2 | >2 | >2 | >2 | >2 | >2 | >2 | >2 | >2 | >2 | >2 | >2 | >2 | >2 | >1 | >1 | >1 | >1 | MBEC-Biofilm Elimination, Without compound 1 [2]: >1; MBEC-Biofilm Elimination, Without compound 2 [2]: >1; MBEC-Biofilm Elimination, Without compound 3 [2]: >1; MBEC-Biofilm Elimination, Without compound 6 [2]: >1; MBEC-Biofilm Elimination, Without compound 7 [2]: >1; MBEC-Biofilm Elimination, Without compound 9 [2]: >1; MBEC-Biofilm Elimination, With 0.01% compound 1 in 5% EtOH/PBS [2]: >1; MBEC-Biofilm Elimination, With 0.01% compound 2 in 5% EtOH/PBS [2]: >1; MBEC-Biofilm Elimination, With 0.01% compound 7 in 5% EtOH/PBS [2]: >1; MBEC-Biofilm Elimination, With 0.05% compound 3 in 5% EtOH/PBS [2]: 1; MBEC-Biofilm Elimination, With 0.05% compound 6 in 5% EtOH/PBS [2]: >1; MBEC-Biofilm Elimination, With 0.1% w/v compound 9 in PBS [2]: >1 |
| NC[C@H]1O[C@H](O[C@H]2[C@H](O)[C@@H](O[C@H]3O[C@H](CO)[C@@H](O)[C@H](N)[C@H]3O)[C@H](N)C[C@@H]2N)[C@H](N)C[C@@H]1O [TO, tobramycin] | >2 | >2 | >2 | >2 | >2 | >2 | >2 | >2 | >2 | 2 | 0.5-2 | >2 | >2 | >2 | >2 | >2 | >2 | >2 | >2 | >2 | MBEC [1]: >2 µg/mL; MBEC, μg/mL +Compound 1 [1]: 0.5 to 2 µg/mL; MBEC, μg/mL +Compound 2 [1]: >2 µg/mL; MBEC, μg/mL +Compound 7 [1]: >2 µg/mL; (% reduction) +Compound 1 [1, 3]: > 50%; value in parentheses after MBEC-Biofilm Inhibition with 0.01% compound 1 (% reduction as in Table 2) [1, 4]: ≥ 50; MBEC-Biofilm Elimination, Without compound 1 [2]: >2; MBEC-Biofilm Elimination, Without compound 2 [2]: >2; MBEC-Biofilm Elimination, Without compound 3 [2]: >2; MBEC-Biofilm Elimination, Without compound 6 [2]: >2; MBEC-Biofilm Elimination, Without compound 7 [2]: >2; MBEC-Biofilm Elimination, Without compound 9 [2]: >2; MBEC-Biofilm Elimination, With 0.01% compound 1 in 5% EtOH/PBS [2]: >2; MBEC-Biofilm Elimination, With 0.01% compound 2 in 5% EtOH/PBS [2]: 1; MBEC-Biofilm Elimination, With 0.01% compound 7 in 5% EtOH/PBS [2]: 0.5; MBEC-Biofilm Elimination, With 0.05% compound 3 in 5% EtOH/PBS [2]: >2; MBEC-Biofilm Elimination, With 0.05% compound 6 in 5% EtOH/PBS [2]: >2; MBEC-Biofilm Elimination, With 0.1% w/v compound 9 in PBS [2]: >2 |
